Source: patent US6806230B1, “Pyrimidine derivatives and herbicides containing them” (Kumiai Chemical Industry Co., Ltd., priority 1999, dated 2004)

Tests used:
[1] = test system: monochoria (Mo); test: Test Example 1: herbicidal effects by flooded paddy field treatment; assay type: in vivo; set-up: herbicidal effects, Mo (monochoria):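 0-5 growth inhibition grade; 5 = over 90%; 4 = 70-90%; 3 = 50-70%; 2 = 30-50%; 1 = 10-30%; 0 = under 10%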;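 on Herbicidal effect index, Mo: 0-5 growth inhibition grade; 5 = over 90%; 4 = 70-90%; 3 = 50-70%; 2 = 30-50%; 1 = 10-30%; 0 = under 10%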
Procedure, shortened: (§1)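 Herbicidal effect is a graded score assigned 21 days after treatment. Application was one day after sowing into flooded (3 cm) puddled paddy soil, with diluted wettable powder dropped onto the water at 100 g active ingredient per 10 ares. Plants were kept in a greenhouse.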

[2] = test system: barnyard grass (Ec); test: Test Example 3: herbicidal effects by foliage treatment in upland field; assay type: in vivo; set-up: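 0-5 growth inhibition grade; 5 = over 90%; 4 = 70-90%; 3 = 50-70%; 2 = 30-50%; 1 = 10-30%; 0 = under 10%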; conditions: dose 100 g active ingredient per 10 ares, examined on the 14th day after treatment
Procedure, shortened: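 Barnyard grass and green foxtail were grown in upland soil for 2 weeks in a greenhouse. A water-diluted wettable powder was sprayed over the foliage at 100 l per 10 ares, giving 100 g active ingredient per 10 ares. Herbicidal effect was scored on day 14 after treatment.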

[3] = test system: green foxtail (Se); test: Test Example 2: herbicidal effects by upland soil treatment; assay type: in vivo; conditions: dose 100 g active ingredient per 10 ares, examined on the 21st day after treatment, standards of Table 44;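 further: 0-5 growth inhibition grade; 5 = over 90%; 4 = 70-90%; 3 = 50-70%; 2 = 30-50%; 1 = 10-30%; 0 = under 10%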
Procedure, shortened: (§2)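 Pre-emergence test: barnyard grass and green foxtail sown in upland soil, then soil surface sprayed with wettable-powder formulation at 100 g active ingredient per 10 ares (100 l per 10 ares). Grown in greenhouse; herbicidal effect scored on a rating scale 21 days after treatment.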

[4] = test system: barnyard grass (Eo); test: Test Example 1: herbicidal effects by flooded paddy field treatment; assay type: in vivo; set-up: herbicidal effects, Eo (barnyard grass):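 0-5 growth inhibition grade; 5 = over 90%; 4 = 70-90%; 3 = 50-70%; 2 = 30-50%; 1 = 10-30%; 0 = under 10%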;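 on Herbicidal effect index, Eo: 0-5 growth inhibition grade; 5 = over 90%; 4 = 70-90%; 3 = 50-70%; 2 = 30-50%; 1 = 10-30%; 0 = under 10%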
Procedure, shortened: as §1

[5] = test system: barnyard grass (Ec); test: Test Example 2: herbicidal effects by upland soil treatment; assay type: in vivo; set-up: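 0-5 growth inhibition grade; 5 = over 90%; 4 = 70-90%; 3 = 50-70%; 2 = 30-50%; 1 = 10-30%; 0 = under 10%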; conditions: dose 100 g active ingredient per 10 ares, examined on the 21st day after treatment, standards of Table 44
Procedure, shortened: as §2

[6] = dose 100 gai/10a, examined on 21st day after treatment, index 0-5 per Table 44
[7] = dose 100 g active ingredient per 10 ares, examined on the 21st day after treatment, standards of Table 44

SMILES | Herbicidal effect index, Mo [1, 6] | Ec (herbicidal effects, index) [2] | herbicidal effects, Se (green foxtail) [3] | melting point [°C] | Herbicidal effect index, Eo [4, 6] | herbicidal effects, Ec (barnyard grass) [5] | herbicidal effects, Mo (monochoria) [1, 7] | herbicidal effects, Eo (barnyard grass) [4, 7]
CC(C)C(c1cncnc1C(F)(F)F)N(C)C(=O)Cc1ccccc1 (stereo not drawn) [Compound 1-8, N-methyl-N-[2-methyl-1-(4-trifluoromethylpyrimidin-5-yl)propyl]phenylacetamide] | 5 | 5 | 5 | 106 to 109 | 5 | 5 | – | –
CC(C)C(c1cncnc1C(F)(F)F)N(C)C(=S)Cc1ccccc1 (stereo not drawn) [Compound 1-142, N-methyl-N-[2-methyl-1-(4-trifluoromethylpyrimidin-5-yl)propyl]phenylthioacetamide] | – | 4 | 5 | 93 to 94 | – | 5 | 5 | 5
